Structures are written as SMILES.

The EC50 is the midpoint of the concentration-response curve.

This experiment deals with T1, Recombinant human ASK1 kinase (Homo sapiens, UniProt Q99683).
T1 construct: purchased Invitrogen Inc
T1 sequence (Q99683 1-1374): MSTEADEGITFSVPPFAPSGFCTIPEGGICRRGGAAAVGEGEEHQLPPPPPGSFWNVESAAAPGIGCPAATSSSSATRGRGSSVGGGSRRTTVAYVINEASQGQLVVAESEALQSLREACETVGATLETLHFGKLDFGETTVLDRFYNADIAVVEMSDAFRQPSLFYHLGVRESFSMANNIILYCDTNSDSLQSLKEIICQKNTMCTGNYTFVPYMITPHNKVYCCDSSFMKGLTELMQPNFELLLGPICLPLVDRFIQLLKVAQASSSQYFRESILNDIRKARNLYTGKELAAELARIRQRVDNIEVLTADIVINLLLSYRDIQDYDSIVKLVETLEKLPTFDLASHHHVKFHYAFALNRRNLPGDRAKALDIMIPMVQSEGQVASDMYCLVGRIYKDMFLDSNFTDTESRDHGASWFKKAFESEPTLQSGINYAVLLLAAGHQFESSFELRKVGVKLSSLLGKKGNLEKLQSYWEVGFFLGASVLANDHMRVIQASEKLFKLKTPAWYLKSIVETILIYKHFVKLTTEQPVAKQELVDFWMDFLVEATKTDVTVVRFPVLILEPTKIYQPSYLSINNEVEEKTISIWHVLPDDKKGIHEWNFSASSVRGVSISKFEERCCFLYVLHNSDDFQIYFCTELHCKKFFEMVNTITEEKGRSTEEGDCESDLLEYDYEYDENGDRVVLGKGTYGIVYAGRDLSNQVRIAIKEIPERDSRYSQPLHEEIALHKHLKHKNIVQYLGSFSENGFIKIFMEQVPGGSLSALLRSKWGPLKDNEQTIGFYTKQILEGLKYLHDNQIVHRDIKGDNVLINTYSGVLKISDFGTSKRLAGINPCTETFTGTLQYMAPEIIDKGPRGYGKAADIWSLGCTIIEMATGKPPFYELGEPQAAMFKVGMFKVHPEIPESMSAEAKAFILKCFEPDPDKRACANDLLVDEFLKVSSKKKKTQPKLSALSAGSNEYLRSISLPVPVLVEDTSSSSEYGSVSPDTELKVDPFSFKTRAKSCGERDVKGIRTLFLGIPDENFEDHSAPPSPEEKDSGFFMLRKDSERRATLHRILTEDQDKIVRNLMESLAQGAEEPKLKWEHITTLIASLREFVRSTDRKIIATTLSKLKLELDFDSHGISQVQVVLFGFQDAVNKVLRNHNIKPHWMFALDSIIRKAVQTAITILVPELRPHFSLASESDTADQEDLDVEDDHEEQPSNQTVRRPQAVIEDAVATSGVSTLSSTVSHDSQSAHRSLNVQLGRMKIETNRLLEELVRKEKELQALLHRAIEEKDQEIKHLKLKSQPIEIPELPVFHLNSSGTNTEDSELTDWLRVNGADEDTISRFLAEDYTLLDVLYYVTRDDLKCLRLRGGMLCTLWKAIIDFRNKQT
As to the kind of experiment: ASK1 kinase HTRF assay (KinEASE-STK). Particulars: HTRF detection; 3 nM ASK1 kinase, 1 uM STK-substrate-biotin. The experiment is classed as biochemical. The method, then:
Reagents: Recombinant human ASK1 kinase was from Invitrogen Inc. HTRF KinEASE™-STK S3 kit was obtained from Cisbio (Bedford, Mass.). All other reagents were of the highest grade commercially available.
Assay: The assay measures the phosphorylation level of a biotinylatd peptide substrate by the ASK1 kinase using HTRF detection. ASK1 kinase assay is based on HTRF KinEASE™-STK manual from Cisbio. Test compound, 1 uM STK-substrate-biotin, 3 nM of ASK1 kinase are incubated with 1*Kinase buffer with 5 mM MgCl2 and 1 mM DTT. 250 nM Sa-XL 665(4*) and STK-antibody-Cryptate work solution are added to stop the reaction and phosphorylated peptide substrate is detected using Envision 2104 Multilabeled reader from PerkinElmer. The fluorescence is measured at 615 nm (Cryptate) and 665 nm (XL665) and a ratio of 665 nm/615 nm is calculated for each well. The resulting TR-FRET level (a ratio of 665 nm/615 nm) is proportional to the phosphorylation level of substrate.
On the technique in general: In TR-FRET formats the signal depends on donor and acceptor labels being close together.
Consider `CNc1cccc(-c2cnc(-c3cccc(-c4nncn4[C@H](C)CO)n3)o2)c1` [Compound I-062], for which the EC50 is not above 50 nM. On to `CC(C)n1cnnc1-c1cccc(-c2ncc(C3CCCCC3)o2)n1` [Compound I-016, 5-Cyclohexyl-2-(6-(4-isopropyl-4H-1,2,4-triazol-3-yl)pyridin-2-yl) oxazole], for which the EC50 was 50 to 500 nM. Then `Cc1ccc(-c2cnc(-c3cccc(-c4nncn4C(C)C)n3)o2)c(F)c1` [Compound I-041], with not above 50 nM; and `CCN1CCN(c2cccc(-c3cnc(-c4cccc(-c5nncn5C(C)C)n4)o3)c2)CC1` [Compound I-010, 5-(3-(4-Ethylpiperazin-1-yl)phenyl)-2-(6-(4-isopropyl-4H-1,2,4-triazol-3-yl)pyridin-2-yl)oxazole], with not above 50 nM; and `CC(C)n1cnnc1-c1cccc(-c2ncc(-c3c(F)cccc3F)o2)n1` [Compound I-050], with not above 50 nM.

In the case of `CC(C)n1cnnc1-c1cccc(-c2ncc(-c3ccccc3C(F)(F)F)o2)n1` [Compound I-085], the EC50 was 50 to 500 nM. Regarding `CC(CO)n1cnnc1-c1cccc(-c2ncc(-c3ccccc3)o2)n1` (centres unmarked) [Compound I-004, 2-(3-(6-(5-Phenyloxazol-2-yl)pyridin-2-yl)-4H-1,2,4-triazol-4-yl) propan-1-ol], the EC50 was not above 50 nM. Then `CC(C)n1cnnc1-c1cccc(-c2ncc(-c3cccc(OC(F)F)c3)o2)n1` [Compound I-083], with 50 to 500 nM; and `CCc1ccc(-c2cnc(-c3cccc(-c4nncn4C(C)C)n3)o2)cc1` [Compound I-036], with 50 to 500 nM. Then `CC(C)n1cnnc1-c1cccc(-c2ncc(-c3ccc(C(C)(C)C)cc3F)o2)n1` [Compound I-045], with 50 to 500 nM.

Take `CC(C)n1cnnc1-c1cccc(-c2ncc(-c3cccc(OC[C@@H]4CN(C)CCO4)c3)o2)n1` [Compound I-080]: the EC50 was not above 50 nM. The figure for `CC(C)n1cnnc1-c1cccc(-c2ncc(-c3cccc(C4CCCC4)c3)o2)n1` [Compound I-133] is 50 to 500 nM. As for `CC(C)n1cnnc1-c1cccc(-c2ncc(-c3cccc(C(=O)Nc4ccccc4)c3)o2)n1` [Compound I-006, N-Phenyl-3-(2-[6-[4-(propan-2-yl)-4H-1,2,4-triazol-3-yl]pyridin-2-yl]-1,3-oxazol-5-yl)benzamide], the EC50 was in the range of 50 to 500 nM. The figure for `COc1ccc(-c2cnc(-c3cccc(-c4nncn4C(C)C)n3)o2)cc1` [Compound I-071] is 50 to 500 nM; for `CSc1ccccc1-c1cnc(-c2cccc(-c3nncn3[C@H](C)CO)n2)o1` [Compound I-096] it is not above 50 nM; for `C[C@H](CO)n1cnnc1-c1cccc(-c2ncc(-c3cccc(N)c3)o2)n1` [Compound I-064] it is not above 50 nM. The figure for `CC(C)n1cnnc1-c1cccc(-c2ncc(-c3cccc(C#N)c3)o2)n1` [Compound I-090] is 50 to 500 nM. As for `Cc1ccccc1-c1cnc(-c2cccc(-c3nncn3[C@H](C)CN)n2)o1` [Compound I-013, (R)-2-(3-(6-(5-o-Tolyloxazol-2-yl)pyridin-2-yl)-4H-1,2,4-triazol-4-yl)propan-1-amine], the EC50 lay in the range of 500 to 5000 nM. On to `CC(C)n1cnnc1-c1cccc(-c2ncc(-c3cccc(N4CCNCC4)c3)o2)n1` [Compound I-113], for which the EC50 was not above 50 nM. For `CC(C)n1cnnc1-c1cccc(-c2ncc(-c3cccc(-c4cccnc4)c3)o2)n1` [Compound I-107], the EC50 is not above 50 nM. In the case of `CCc1ccccc1-c1cnc(-c2cccc(-c3nncn3C(C)C)n2)o1` [Compound I-038], the EC50 is not above 50 nM. Take `CC(C)n1cnnc1-c1cccc(-c2ncc(-c3ccc(C#N)cc3)o2)n1` [Compound I-091]: the EC50 lay in the range of 50 to 500 nM. The figure for `CC(C)N1CCN(c2cccc(-c3cnc(-c4cccc(-c5nncn5C(C)C)n4)o3)c2)CC1` [Compound I-117] is not above 50 nM; for `C[C@H](CO)n1cnnc1-c1cccc(-c2ncc(-c3c(F)cccc3F)o2)n1` [Compound I-051] it is not above 50 nM; for `Cc1ccccc1-c1cnc(-c2cccc(-c3nncn3C(C)C)n2)o1` [Compound I-024] it is not above 50 nM. As for `CC(C)n1cnnc1-c1cccc(-c2ncc(-c3cccc(N)c3)o2)n1` [Compound I-063], the EC50 is not above 50 nM. The figure for `C[C@H](CO)n1cnnc1-c1cccc(-c2ncc(-c3ccc(N)cc3)o2)n1` [Compound I-066] is not above 50 nM. Then `CC(C)n1cnnc1-c1cccc(-c2ncc(-c3cccc(C4CCCCC4)c3)o2)n1` [Compound I-131], with 500 to 5000 nM. Then `CC(C)n1cnnc1-c1cccc(-c2ncc(-c3cccc(C4=CCN(C(=O)OC(C)(C)C)C4)c3)o2)n1` [Compound I-124], with 50 to 500 nM; and `CSc1cccc(-c2cnc(-c3cccc(-c4nncn4C(C)C)n3)o2)c1` [Compound I-068], with not above 50 nM; and `CC(C)c1cccc(-c2cnc(-c3cccc(-c4nncn4C(C)C)n3)o2)c1` [Compound I-034], with 50 to 500 nM. As to `CC(C)n1cnnc1-c1cccc(-c2ncc(-c3cccc(N4CCN(C)CC4)c3)o2)n1` [Compound I-115], the EC50 was not above 50 nM.

As to `C[C@H](CO)n1cnnc1-c1cccc(-c2ncc(-c3cccc(C4CCCC4)c3)o2)n1` [Compound I-135], the EC50 was not above 50 nM. Consider `C[C@H](CO)n1cnnc1-c1cccc(-c2ncc(-c3cccc(O)c3)o2)n1` [Compound I-074], for which the EC50 was not above 50 nM. Then `CC(C)n1cnnc1-c1cccc(-c2ncc(-c3ccc4c(c3)OCCO4)o2)n1` [Compound I-102], with not above 50 nM.

`CC(C)n1cnnc1-c1cccc(-c2ncc(-c3cccc(N4CCN(S(C)(=O)=O)CC4)c3)o2)n1` [Compound I-119]: the EC50 was not above 50 nM. For the molecule `C[C@H](CO)n1cnnc1-c1cccc(-c2ncc(-c3cccc(N4CCN(C)CC4)c3)o2)n1` [Compound I-116], the EC50 is not above 50 nM.

As to `CC(C)n1cnnc1-c1cccc(-c2ncc(-c3ccc(OC(F)F)cc3)o2)n1` [Compound I-084], the EC50 was not above 50 nM. Then `COc1cccc(-c2cnc(-c3cccc(-c4nncn4C(C)C)n3)o2)c1` [Compound I-070], with 50 to 500 nM; and `CC(C)n1cnnc1-c1cccc(-c2ncc(-c3ccc(-c4ccccc4)cc3)o2)n1` [Compound I-105], with 50 to 500 nM. As to `C[C@H](CO)n1cnnc1-c1cccc(-c2ncc(-c3ccc(S(N)(=O)=O)cc3)o2)n1` [Compound I-100], the EC50 is not above 50 nM. The figure for `Cc1ccccc1-c1cnc(-c2cccc(-c3nncn3[C@H](C)CO)n2)o1` [Compound I-025] is not above 50 nM; for `CC(C)n1cnnc1-c1cccc(-c2ncc(-c3ccc(N(C)C)cc3)o2)n1` [Compound I-057] it is not above 50 nM; for `CC(C)n1cnnc1-c1cccc(-c2ncc(-c3cccc(N4CCC(O)C4)c3)o2)n1` (centres unmarked) [Compound I-005, 1-[3-(2-[6-[4-(Propan-2-yl)-4H-1,2,4-triazol-3-yl]pyridin-2-yl]-1,3-oxazol-5-yl)phenyl]pyrrolidin-3-ol] it is not above 50 nM.

For the molecule `Cc1ccc(-c2cnc(-c3cccc(-c4nncn4C(C)C)n3)o2)c(C)c1` [Compound I-031], the EC50 is not above 50 nM.

Regarding `Cc1ccc(-c2cnc(-c3cccc(-c4nncn4C(C)C)n3)o2)cc1` [Compound I-029], the EC50 is not above 50 nM. Then `CC(C)n1cnnc1-c1cccc(-c2ncc(-c3ccc(C4CC4)cc3)o2)n1` [Compound I-039], with 50 to 500 nM.

For the origin of these results see patent US20210179600A1, “OXAZOLE AND THIAZOLE DERIVATIVES AS INHIBITORS OF ASK1” (Hepagene Therapeutics (HK) Limited, priority 2017, published 2021).
